In patent publication US20250115665A1, “BISPECIFIC ANTIBODY AGAINST CD3 AND CD20 IN COMBINATION THERAPY FOR TREATING DIFFUSE LARGE B-CELL LYMPHOMA” (GENMAB A/S, priority 2022, published 2025):

Assays:
[1] = test system: CD20-expressing Daudi cells; assay: DuoBody-CD3xCD20-induced T-cell-mediated cytotoxicity assay with lenalidomide pre-treated T cells; assay type: cell-based; details: T cells pre-treated with lenalidomide and anti-CD3; Daudi target cells, E:T ratio 2:1
Experimental: T cells were incubated with (5 or 50 μM) or without lenalidomide in the absence or presence of immobilized anti-CD3 for 3 days. […] Data shown are average percentages cytotoxicity±SD of duplicates, normalized to medium control (no antibody, no lenalidomide).
(§1) Briefly, T cells were activated with immobilized anti-CD3 in the presence (5 or 50 μM) or absence of lenalidomide for 3 days. […] T cells that were activated in the presence or absence of lenalidomide were subsequently tested for their cytotoxic capacity in response to epcoritamab.

[2] = test system: highly refractory large B-cell lymphoma; details: monotherapy, n=157; cited from earlier work
[3] = test system: T cells; assay: T-cell activation with immobilized anti-CD3 in the presence or absence of lenalidomide; assay type: cell-based; details: lenalidomide 5 or 50 μM, CD3 crosslinking by immobilized anti-CD3, 3 days; compared to no lenalidomide
Experimental: T cells were pre-incubated with assay medium or lenalidomide in the absence or presence of CD3 crosslinking by immobilized anti-CD3 for 3 days (as indicated on the x-axes), after which upregulation of CD69, CD25, PD-1 and LAMP-1 on CD4+ and CD8+ T cells was determined by flow cytometry. Data shown are geomean fluorescence intensities (FI) for four donors (each circle represents one condition for one donor). Pre-incubation conditions are shown on the x-axis.
as §1

Compound	cytotoxic activity at lower antibody concentrations [1]	maximum percent cytotoxicity [1]	complete response (CR) rate [2] [%]	median duration of response (DOR) [2] [months]	overall response rate (ORR) [2] [%]	safety profile [2]	T-cell activation (upregulation of CD69, CD25 on the T cell surface, release of granzyme B and IFNγ) [3]
epcoritamab: IgG1 bispecific CD3×CD20 antibody, heavy/light chains SEQ ID NOs: 24, 25 and 26, 27; CAS 2134641-34-0	higher activity at lower epcoritamab concentrations	Higher maximum percent cytotoxicity	39	12	63	manageable safety profile	–
Nc1cccc2c1CN(C1CCC(=O)NC1=O)C2=O (stereo not shown) [lenalidomide, 3-(4-Amino-1-oxo-1,3-dihydro-2H-isoindol-2-yl) piperidine-2,6-dione]	–	–	–	–	–	–	increased T-cell activation
